Patent publication US20260232652A1, “COMBINATIONS OF DGK (DIACYLGLYCEROL KINASE) INHIBITORS” (priority 2023, published 2026)
Entries after “also recorded” stand apart in the source; their conditions may differ.

Assays:
human DGKalpha = molecular target: T1, human DGKalpha (Homo sapiens, UniProt P23743); assay: Human DGKalpha kinase activity inhibition assay (ADP-Glo); assay type: biochemical; details: read-out: IC50 hDGKa
T1 construct: made in house; host or cells: baculovirus-infected Sf9 insect cells
T1 sequence (P23743 whole entry): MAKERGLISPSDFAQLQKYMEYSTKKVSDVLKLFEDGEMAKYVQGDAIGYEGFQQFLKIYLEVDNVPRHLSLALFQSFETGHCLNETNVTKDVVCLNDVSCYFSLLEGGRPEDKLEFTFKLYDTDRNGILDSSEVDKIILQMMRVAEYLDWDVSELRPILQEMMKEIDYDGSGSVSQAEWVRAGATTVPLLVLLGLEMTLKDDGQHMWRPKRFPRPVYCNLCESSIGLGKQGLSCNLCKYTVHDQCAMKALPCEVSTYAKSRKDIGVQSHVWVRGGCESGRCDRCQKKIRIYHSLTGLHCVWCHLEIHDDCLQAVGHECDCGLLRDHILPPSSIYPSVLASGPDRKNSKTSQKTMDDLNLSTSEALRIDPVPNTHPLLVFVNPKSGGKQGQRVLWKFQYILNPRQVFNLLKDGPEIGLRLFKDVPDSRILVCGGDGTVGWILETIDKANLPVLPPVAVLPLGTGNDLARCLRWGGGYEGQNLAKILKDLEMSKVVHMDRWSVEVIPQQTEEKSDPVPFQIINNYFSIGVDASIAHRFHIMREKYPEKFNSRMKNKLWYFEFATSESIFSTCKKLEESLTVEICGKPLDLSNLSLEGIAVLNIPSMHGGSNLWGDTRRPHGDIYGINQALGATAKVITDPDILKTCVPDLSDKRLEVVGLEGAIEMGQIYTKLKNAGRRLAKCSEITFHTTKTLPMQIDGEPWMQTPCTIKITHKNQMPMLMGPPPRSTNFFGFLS
Protocol: Human DGKalpha inhibitory activity of compounds of the present invention was quantified employing the human DGKalpha kinase activity assay as described in the following paragraphs. In essence, the enzyme activity was measured by quantification of the adenosine-di-phosphate (ADP) generated as a co-product of the enzyme reaction via the “ADP-Glo™ Kinase Assay” kit from the company Promega. This detection system works as follows: In a first step the ATP not consumed in the kinase reaction is quantitatively converted to cAMP employing an adenylate cyclase (“ADP-Glo-reagent”), then the adenylate cyclase is stopped and the ADP generated in the kinase reaction converted to ATP, which subsequently generates in a luciferase-based reaction a glow-luminescence signal (“Kinase Detection Reagent”).
C-terminally FLAG-tagged, recombinant full-length human DGKalpha (expressed in baculovirus infected insect cells, purified using anti-Flag pulldown and size exclusion chromatography as described below, DGKa_hu_1) was used as enzyme. As substrate for the kinase 1,2-dioleoyl-sn-glycerol, reconstituted in octyl-β-D-glucopyranoside micelles, was used. […] Then 35 volumes of 50 mM MOPS buffer (pH 7.4) were added to yield a solution of 0.28 mM 1,2 dioleoyl-sn-glycerol and 200 mM octyl-β-D-glucopyranoside, which was aliquoted, flash-frozen in liquid nitrogen, and stored at −20° C. until use.
For the assay 50 nl of a 100-fold concentrated solution of the test compound in dimethyl sulfoxide (DMSO, Sigma) was pipetted into either a white 1536-well or a white low-volume 384-well microtiter plate (both Greiner Bio-One, Frickenhausen, Germany). […] The concentration of DGKα was adjusted depending of the activity of the enzyme lot and was chosen appropriate to have the assay in the linear range, a typical concentration is about 0.1 nM. The reaction was stopped by the addition of […] of “ADP-Glo-reagent” (1 to 1.5 diluted with water) and the resulting mixture was incubated at 22° C. for 1 h to convert the ATP not consumed in the kinase reaction completely to cAMP. […] The amount of emitted light was taken as a measure for the amount of ADP generated and thereby for the activity of the DGKα.

IFN-γ = IFN-γ secretion in Colo-800 / MART1 T cell co-culture (ELISA); assay type: cell-based, human; details: monotherapy 50 nM; 72 hours after start of co-culture
[1] = test system: EMT6 murine breast carcinoma cells; assay: Syngeneic EMT6 murine breast carcinoma model (Example 4); assay type: in vivo; details: EMT6 s.c. in Balb/c mice; DGKalpha inhibitor A 3 mg/kg QD, DGKzeta inhibitor A′ 5 mg/kg QD, plus isotype control 5 mg/kg Q3/4D; treatment day 8 to 23
Protocol: EMT6 murine breast carcinoma cells were inoculated s.c. into Balb/c mice (n=10/group). […] Q3/4D, every third or fourth day; QD, once daily. […] The following eight treatment groups are included: Polyethylene glycol 400 (PEG)/ethanol (EtOH)/water (60/10/30). • 1. Anti-PD-L1 (TPP-3911, 5 mg/kg) i.p., q3/4d • 2. […] DGKzeta inhibitor A' (5 mg/kg) p.o., q.d.+Isotype control (5 mg/kg) i.p., q3/4d • 4. […] Vehicle as described supra, q.d. Mice were assigned to a study at the age of 6-8 weeks. Animal husbandry, feeding and health conditions were according to animal welfare guidelines. EMT6 cell line was cultivated with appropriate medium and split at least 3 times before inoculation. Female Balb/c mice were inoculated subcutaneously with 5×10>5 tumor cells in a medium/matrigel mixture ratio of 1:1. After 8 days the mice were randomized, and therapeutic treatment started when tumors had reached a size of approx. 40-mm^2. Tumor size was measured using calipers determining length (a) and width (b), for results see FIG. 5. Tumor volume was calculated according to: […]

[2] = test system: MC38 syngeneic mouse tumor model; assay: MC38 syngeneic mouse tumor model, different dose combination ratios (Example 5); assay type: in vivo; details: 3 mg/kg p.o. q.d. each (monotherapy, or 3 mg/kg + 3 mg/kg), day 25 after tumor inoculation
From the text: The objective of this study was to observe the effects of combination therapies with DGKzeta and/or DGKalpha inhibitors on the tumor volume in the MC38 syngeneic mouse tumor model upon different dose combination ratios. The following eight treatment groups are included: • 1. Vehicle • 2. […] Treatment was started on ~day 8 after tumor inoculation at ~80-100 mm^3 tumor volume. […] Day 25 after tumor inoculation).

MC38 mouse model = assay: MC38 mouse model, tumor volume, survival and re-challenge (Example 6); assay type: in vivo; details: for inhibition of tumor growth: 3 mg/kg p.o. QD each, versus control group; for Tumor volume: each agent 3 mg/kg, antibodies i.p. BIWx4, DGK inhibitors p.o. QD
Protocol: In order to study triple combinations or quadruple combinations with anti-CCR8 antibodies, at least one DGK inhibitor and an anti-PD(L)1 antibody, multiple experiments were performed. In order to see the differences in efficacy, the administered amounts for each individual compound or antibody were reduced to 3 mg/kg to avoid full efficacy in a monotherapy setup and to be able to evaluate the efficacy for triple and quadruple combination therapy.
Efficacy in a MC38 mouse model was analyzed in groups with 10 mice each and is shown in Table 6.1 and FIGS. 8, 9 and 10. • TPP-15285 (mIgG2a) is a surrogate antibody for anti-CCR8 antibody TPP-23411 and induces both, ADCC and ADCP. TPP-15285 was administered i.p. at 3 mg/kg with a BIWx4 administration scheme. • TPP-10748 (Iso Ctrl aCCR8) served as isotype control for TPP-15285 (mIgG2a) and was administered i.p. at 3 mg/kg with a BIWx4 administration scheme. • TPP-3911 (Atezo, mIgG1) was used as anti-PD(L)1 antibody (e.g. pembrolizumab surrogate) and was administered i.p. at 3 mg/kg with a BIWx4 administration scheme. • TPP-3267 or TPP-10149 (mIgG1) served as isotype control for anti-PD(L)1 antibody TPP-3911 (mIgGa) and were abbreviated Iso Ctrl aPD(L)1.
Antibody treatment was started on ~day 7 after tumor inoculation at ~80-100 mm^3 tumor volume, i.e. antibody administration occurred on days 7, 10, 14 and 17, after tumor inoculation. DGK inhibitor treatment started two days after the first antibody administration, i.e. on ~day 9 after tumor inoculation, i.e. DGK inhibitor was administered on day 9, 10, 11, 12, 13, 14, 15, 16, 17, 18, 19, 20 and 21 after tumor inoculation. Tumor growth inhibition was measured until tumors reached a size of 1100 mm^3 (approx. Day 20 after tumor inoculation).

[3] = 4 days after start of treatment
[4] = 7 days after start of treatment
[5] = 10 days after start of treatment
[6] = 12 days after start of treatment
[7] = 14 days after start of treatment
[8] = 17 days after start of treatment
[9] = −1 days after start of treatment (6 days after start of transplantation)

| IC50 (human DGKalpha) [nM] | SMILES | increase in IFN-γ secretion (IFN-γ) | tumor growth inhibition [1] | inhibition of tumor growth [2] | inhibition of tumor growth (MC38 mouse model) | Tumor volume (MC38 mouse model; [3]) [mm^3] | Tumor volume (MC38 mouse model; [4]) [mm^3] | Tumor volume (MC38 mouse model; [5]) [mm^3] | Tumor volume (MC38 mouse model; [6]) [mm^3] | Tumor volume (MC38 mouse model; [7]) [mm^3] | Tumor volume (MC38 mouse model; [8]) [mm^3] | Tumor volume (MC38 mouse model; [9]) [mm^3] |
| --- | --- | --- | --- | --- | --- | --- | --- | --- | --- | --- | --- | --- |
| 0.25 | Cc1ccc2oc(C3CCN(c4c(C(N)=O)c(=O)n(C)c5ccc(F)cc45)CC3)nc2c1 [DGKalpha inhibitor A, 6-fluoro-1-methyl-4-[4-(5-methyl-1,3-benzoxazol-2-yl)piperidin-1-yl]-2-oxo-1,2-dihydroquinoline-3-carboxamide] | slight | only moderate tumor growth inhibitions | only moderate inhibition of tumor growth; also recorded: no single agent activity | only moderate inhibition of tumor growth | 134.0 | 207.0 | 412.4 | 524.8 | 735.4 | 1122.5 | 62.0 |
| > 3630 | COc1ccc(C(=O)c2sc(N(c3ccc(F)cc3)[C@H](C)C(N)=O)nc2N)cc1 [DGKzeta inhibitor A′, (R)-2-(N-[4-amino-5-(4-methoxybenzoyl)thiazol-2-yl]-4-fluoro-anilino)propanamide] | moderate | only moderate tumor growth inhibitions | only moderate inhibition of tumor growth | only moderate inhibition of tumor growth | 115.9 | 211.9 | 322.0 | 508.0 | 684.4 | 1097.3 | 62.4 |
